# Experimental data as given in patent publication US11541051B2, “Compositions and methods for treating CDK4/6-mediated cancer” (Icahn School of Medicine at Mount Sinai, priority 2016, dated 2023).
# “Also recorded” adds a separate entry of the source.
# Key:
# Assay type in all cases: cell-based
# CDK4/6 [1] = experiment: Western blot of CDK4 and CDK6 in MCF7 breast cancer cells treated with degraders (Example 12, FIG. 10 A); conditions: 1 or 5 μM, 24 h
# Experimental: (§1) Breast cancer cell lines (MCF7, T47D, and ZR-75-1) and melanoma cell lines (A375, SK-MEL-2, SK-MEL-30, and WM1382) were cultured in the presence of DMEM or RPMI supplemented with 10% FBS in the presence of penicillin and streptomycin.
# (§2) Protein concentrations were determined by BCA from cell lysates and equal amounts of protein are loaded to a Bis-Tris 4-12% gel. Gels were run at 80 V for 4 h using 1× running buffer (25 mM Tris, pH 8.3, […] glycine, 0.1% SDS). Proteins were transferred to a nitrocellulose membrane for 2 h at 100 V using transfer buffer (25 mM Tris, pH 8.3, […] glycine, 20% methanol). Ponceau S staining (0.1% Ponceau S, 1% acetic acid) was used to confirm transfer of proteins to the membrane followed by blocking of the membrane for 30 min at room temperature using blocking buffer (5% dry nonfat milk, 0.1% Tween, 0.02% sodium azide in TBS). The blocked membrane is incubated with primary antibodies (1:1000 dilution) in blocking buffer at 4° C. overnight. When primary phosphor-antibodies were used, then the membrane is incubated with 5% BSA instead of milk. The membrane was washed three times, 10 min each, with wash buffer (0.1% Tween in TBS) followed by incubation with secondary HRP conjugated antibody (1:5000 dilution) in 2.5% dry nonfat milk, 0.1% Tween in TBS for 1 h at room temperature. The membrane was washed three times, 10 min each, with wash buffer (0.1% Tween in TBS). Membranes are incubated with ECL for 1 min and proteins are detected after exposure to a blue autoradiographic film.
# (§3) MCF7 breast cancer cells were treated with 1 or 5 μM XY019-095, XY019-098, XY019-0100, XY019-105A, XY019-105B, XY019-106, or XY019-108 for 24 h, then lysed and immunoblotted with antibodies to CDK4, CDK6, and actin (FIG. 10, panel A). […] T47D breast cancer cells were treated with 0.1, 0.3, 1, 3, 10, or 30 μM XY019-106 for 24 h, then lysed and immunoblotted with antibodies to phospho-Rb (pRB), CDK4, and actin (FIG. 10, panel B).
# CDK4/6 [2] = experiment: Characterization of CDK4/6 degraders/disruptors in various breast cancer and melanoma cells (summary, Examples 12 and 13)
# Experimental: Specific exemplary abemaciclib-, ribociclib-, and palbociclib-based CDK4/6 degraders/disruptors were characterized in various different breast cancer and melanoma cells (Examples 12 and 13, FIGS. 10-23). […] This efficacy in suppressing CDK4/6 expression and CDK4/6 activity correlated with efficacy in inhibiting cancer cell proliferation.
# as §2
# CDK4/6 [3] = experiment: Western blot of CDK4/6 and phospho-Rb in T47D breast cancer cells treated with degraders (Example 12, FIGS. 10 B, 17, 19); conditions: 0.3 or 1 μM, 24 h
# Experimental: as §1, §2, §3
# T47D breast cancer cells (FIG. 17) were treated with 0.3 or 1 μM XY028-140, YX039-48, YX039-123, YX039-56, YX039-124, YX039-65, YX039-147 or YX039-74 for 24 h, then lysed and immunoblotted with antibodies to phospho-Rb (pRb), total Rb, PLK1, cyclin A, CDK4, CDK6, and actin.
# T47D breast cancer cells (FIG. 19) were treated with 0.3 or 1 μM XY028-133, YX044-18, YX044-22, XY028-140, YX044-19 or YX044-38 for 24 h, then lysed and immunoblotted with antibodies to phospho-Rb (pRb), total Rb, PLK1, cyclin A, CDK4, CDK6, and actin.
# CDK4/6 [4] = experiment: Western blot of CDK4, CDK6 and phospho-Rb in A375 melanoma cells treated with degraders (Example 12, FIGS. 12, 13, 16, 18); conditions: 1 or 3 μM, 24 h
# Experimental: as §1, §2
# A375 melanoma cells (FIG. 13) were treated with 1 or 3 μM Ribociclib (RB), YX030-126, YX030-108, YX030-107, YX030-086, YX030-085 or XY028-133 for 24 h, then lysed and immunoblotted with antibodies to CDK4, CDK6, cyclin A, PLK1, phospho-Rb (pRb), and actin.
# A375 melanoma cells (FIG. 16, panel A) were treated with 0.3 or 1 μM XY028-140, YX039-65, YX039-48, YX039-123, YX039-56, YX039-124 or YX039-147 for 24 h. A375 melanoma cells were treated with 1 or 3 μM XY028-140, YX039-56, YX039-65 or XY028-133 (FIG. 16, panel B). Cells were lysed and immunoblotted with antibodies to phospho-Rb (pRb), total Rb, PLK1, cyclin A, CDK4, CDK6, and actin.
# A375 melanoma cells (FIG. 18) were treated with 1 or 3 μM XY028-133, YX044-18, YX044-22, XY028-140, YX044-19 or YX044-38 for 24 h, then lysed and immunoblotted with antibodies to phospho-Rb (pRb), total Rb, PLK1, cyclin A, CDK4, CDK6, and actin.
# T47D breast cancer cells = experiment: Crystal violet staining (clonogenic assay) of T47D breast cancer cells (Example 13, FIGS. 22, 23); conditions: 11 days
# Experimental: Cells were cultured for 7-11 days in the presence of different compounds. Media with compound was replenished every two days. At the end of the experiment, media was aspirated and viable cells were stained with 0.5% crystal violet dye.
Structure (SMILES),suppression of CDK4/6 expression (CDK4/6 [1]),suppression of both CDK4/6 expression and CDK4/6 activity (summary) (CDK4/6 [2]),efficacy in inhibiting both CDK4/6 expression and CDK4/6 activity (decreased Rb phosphorylation) (CDK4/6 [3]),efficacy in inhibiting both CDK4/6 expression and CDK4/6 activity (decreased Rb phosphorylation) (CDK4/6 [4]),"inhibition of cancer cell proliferation compared with palbociclib (crystal violet staining) (T47D breast cancer cells; 0.003, 0.01 or 0.03 μM)","inhibition of cancer cell proliferation compared with palbociclib (crystal violet staining) (T47D breast cancer cells; 0.03, 0.1, 0.3, 1 or 3 μM)"
"CC(=O)c1c(C)c2cnc(Nc3ccc(N4CCN(C(=O)COCCOCCOCC(=O)N[C@H](C(=O)N5C[C@H](O)C[C@H]5C(=O)NCc5ccc(-c6scnc6C)cc5)C(C)(C)C)CC4)cn3)nc2n(C2CCCC2)c1=O [XY019-098, (2S,4R)-1-((S)-14-(4-(6-((6-acetyl-8-cyclopentyl-5-methyl-7-oxo-7,8-dihydropyrido[2,3-d]pyrimidin-2-yl)amino)pyridin-3-yl)piperazin-1-yl)-2-(tert-butyl)-4,14-dioxo-6,9,12-trioxa-3-azatetradecanoyl)-4-hydroxy-N-(4-(4-methylthiazol-5-yl)benzyl)pyrrolidine-2-carboxamide]",especially effective in suppressing CDK4/6 expression even at 1 μM,especially effective in suppressing both CDK4/6 expression and CDK4/6 activity,,,,
"CC(=O)c1c(C)c2cnc(Nc3ccc(N4CCN(C(=O)CNc5cccc6c5C(=O)N(C5CCC(=O)NC5=O)C6=O)CC4)cn3)nc2n(C2CCCC2)c1=O (centres unmarked) [XY028-140, 4-((2-(4-(6-((6-acetyl-8-cyclopentyl-5-methyl-7-oxo-7,8-dihydropyrido[2,3-d]pyrimidin-2-yl)amino)pyridin-3-yl)piperazin-1-yl)-2-oxoethyl)amino)-2-(2,6-dioxopiperidin-3-yl)isoindoline-1,3-dione]",,especially effective in suppressing both CDK4/6 expression and CDK4/6 activity,"efficacy of CDK4/6 degraders, particularly XY028-140 and YX039-123; also recorded: efficacy of CDK4/6 degraders, particularly XY028-140 and YX044-22 and YX044-19","efficacy of CDK4/6 degraders, particularly XY028-133, XY028-140, XY019-106 and XY028-003",inhibited cancer cell proliferation more effective that palbociclib at the same concentration,inhibited cancer cell proliferation more effective that palbociclib at the same concentration
"CC(=O)c1c(C)c2cnc(Nc3ccc(N4CCN(C(=O)CCc5cccc6c5C(=O)N(C5CCC(=O)NC5=O)C6)CC4)cn3)nc2n(C2CCCC2)c1=O (centres unmarked) [YX039-56, 3-(7-(3-(4-(6-((6-acetyl-8-cyclopentyl-5-methyl-7-oxo-7,8-dihydropyrido[2,3-d]pyrimidin-2-yl)amino)pyridin-3-yl)piperazin-1-yl)-3-oxopropyl)-1-oxoisoindolin-2-yl)piperidine-2,6-dione]",,especially effective in suppressing both CDK4/6 expression and CDK4/6 activity,,,inhibited cancer cell proliferation more effective that palbociclib at the same concentration,inhibited cancer cell proliferation more effective that palbociclib at the same concentration
"CC(=O)c1c(C)c2cnc(Nc3ccc(N4CCN(C(=O)CNc5cccc6c5CN(C5CCC(=O)NC5=O)C6=O)CC4)cn3)nc2n(C2CCCC2)c1=O (centres unmarked) [YX039-65, 3-(4-((2-(4-(6-((6-acetyl-8-cyclopentyl-5-methyl-7-oxo-7,8-dihydropyrido[2,3-d]pyrimidin-2-yl)amino)pyridin-3-yl)piperazin-1-yl)-2-oxoethyl)amino)-1-oxoisoindolin-2-yl)piperidine-2,6-dione]",,especially effective in suppressing both CDK4/6 expression and CDK4/6 activity,,,inhibited cancer cell proliferation more effective that palbociclib at the same concentration,inhibited cancer cell proliferation more effective that palbociclib at the same concentration
"CC(=O)c1c(C)c2cnc(Nc3ccc(N4CCN(C(=O)COc5cccc6c5CN(C5CCC(=O)NC5=O)C6=O)CC4)cn3)nc2n(C2CCCC2)c1=O (centres unmarked) [YX039-123, 3-(4-(2-(4-(6-((6-acetyl-8-cyclopentyl-5-methyl-7-oxo-7,8-dihydropyrido[2,3-d]pyrimidin-2-yl)amino)pyridin-3-yl)piperazin-1-yl)-2-oxoethoxy)-1-oxoisoindolin-2-yl)piperidine-2,6-dione]",,especially effective in suppressing both CDK4/6 expression and CDK4/6 activity,"efficacy of CDK4/6 degraders, particularly XY028-140 and YX039-123",,inhibited cancer cell proliferation more effective that palbociclib at the same concentration,inhibited cancer cell proliferation more effective that palbociclib at the same concentration
"CC(=O)c1c(C)c2cnc(Nc3ccc(N4CCCN(C(=O)CCCCCC(=O)N[C@H](C(=O)N5C[C@H](O)C[C@H]5C(=O)NCc5ccc(-c6scnc6C)cc5)C(C)(C)C)CC4)cn3)nc2n(C2CCCC2)c1=O [YX044-18, (2S,4R)-1-((S)-2-(7-(4-(6-((6-acetyl-8-cyclopentyl-5-methyl-7-oxo-7,8-dihydropyrido[2,3-d]pyrimidin-2-yl)amino)pyridin-3-yl)-1,4-diazepan-1-yl)-7-oxoheptanamido)-3,3-dimethylbutanoyl)-4-hydroxy-N-(4-(4-methylthiazol-5-yl)benzyl)pyrrolidine-2-carboxamide]",,,,"efficacy of CDK4/6 degraders, particularly XY028-133 and YX044-18",,
"CC(=O)c1c(C)c2cnc(Nc3ccc(N4CCCN(C(=O)CNc5cccc6c5C(=O)N(C5CCC(=O)NC5=O)C6=O)CC4)cn3)nc2n(C2CCCC2)c1=O (centres unmarked) [YX044-19, 4-((2-(4-(6-((6-acetyl-8-cyclopentyl-5-methyl-7-oxo-7,8-dihydropyrido[2,3-d]pyrimidin-2-yl)amino)pyridin-3-yl)-1,4-diazepan-1-yl)-2-oxoethyl)amino)-2-(2,6-dioxopiperidin-3-yl)isoindoline-1,3-dione]",,,"efficacy of CDK4/6 degraders, particularly XY028-140 and YX044-22 and YX044-19",,,
"CC(=O)c1c(C)c2cnc(Nc3ccc(N4CCN(C(=O)CCCCCC(=O)N[C@H](C(=O)N5C[C@H](O)C[C@H]5C(=O)N[C@@H](C)c5ccc(-c6scnc6C)cc5)C(C)(C)C)CC4)cn3)nc2n(C2CCCC2)c1=O [YX044-22, (2S,4R)-1-((S)-2-(7-(4-(6-((6-acetyl-8-cyclopentyl-5-methyl-7-oxo-7,8-dihydropyrido[2,3-d]pyrimidin-2-yl)amino)pyridin-3-yl)piperazin-1-yl)-7-oxoheptanamido)-3,3-dimethylbutanoyl)-4-hydroxy-N-((S)-1-(4-(4-methylthiazol-5-yl)phenyl)ethyl)pyrrolidine-2-carboxamide]",,,"efficacy of CDK4/6 degraders, particularly XY028-140 and YX044-22 and YX044-19",,,
